Test results from US20240148821A1, “PHARMACEUTICAL USE OF CYCLIC PEPTIDE COMPOUND” (CHUGAI SEIYAKU KABUSHIKI KAISHA, priority 2021, published 2024).
Numbered stars: 1 amine (or outer) side, 2 acyl side, 3 side chain; on linkers, the order of the positions; unused ones are H or OH. Bridge positions count the residues as written; N and C are the ends. Square brackets hold non-standard residues; d marks the D form. Peptide text beside a SMILES is read from it. * marks the point of attachment. hPhe(3,5-F2-4-CF3) = N[C@@H](CCc1cc(F)c(C(F)(F)F)c(F)c1)C(=O)O; hPhe(3-Cl-4-CF3) = N[C@@H](CCc1ccc(C(F)(F)F)c(Cl)c1)C(=O)O; NEtPhe(4-CF3) = CCN[C@@H](Cc1ccc(C(F)(F)F)cc1)C(=O)O; hPhe(4-CF3) = N[C@@H](CCc1ccc(C(F)(F)F)cc1)C(=O)O; ACHC(1R,2R) = O=C([C@@H]1CCCC[C@H]1N[*:1])[*:2]; NEtPhe(4-Me) = CCN[C@@H](Cc1ccc(C)cc1)C(=O)O; NMePhe(4-Cl) = CN[C@@H](Cc1ccc(Cl)cc1)C(=O)O; NMedβ3hAla = C[C@H](CC(=O)[*:2])N(C)[*:1]; NMeGly(cPent) = CN[C@H](C(=O)O)C1CCCC1; Pro(4,4-F2) = O=C(O)[C@@H]1CC(F)(F)CN1; NMeCha = CN[C@@H](CC1CCCCC1)C(=O)O; Hyp = O=C(O)[C@@H]1C[C@@H](O)CN1; NMeChg = CN[C@H](C(=O)O)C1CCCCC1; NMeF = CN[C@@H](Cc1ccccc1)C(=O)O; NMeD = CN[C@@H](CC(=O)O)C(=O)O; NMeL = CN[C@@H](CC(C)C)C(=O)O; NMeV = CN[C@H](C(=O)O)C(C)C; d(β3hA) = C[C@@H](N)CC(=O)O; NMeA = CN[C@@H](C)C(=O)O; NMeAib = CNC(C)(C)C(=O)O; Piperidide = C1CCN(*)CC1; Pyrrolidide = C1CCN(*)C1; Ac5c = NC1(C(=O)O)CCCC1; Aze = O=C(O)[C@@H]1CCN1; Ac4c = NC1(C(=O)O)CCC1; Sar = CNCC(=O)O

The compounds below were run against protein-protein interaction between Kras and SOS1 (biotin-tagged human Kras loaded with GDP, His-tagged human SOS1) (Homo sapiens (Human), UniProt P01116, G12D) (assay: Protein-protein interaction inhibition between Kras and SOS1 (KrasG12D-SOS PPI) using AlphaScreen). Details: not given.
Format: biochemical

| IC50 | SMILES |
| --- | --- |
| 0.57 nM | CC[C@H](C)[C@@H]1NC(=O)[C@H](CC(C)C)N(C)C(=O)C[C@@H](C(=O)N(C)C)N(C)C(=O)[C@H](C2CCCC2)N(C)C(=O)C2(CCCC2)NC(=O)[C@H](CC(=O)N2CCCC2)N(C)C(=O)[C@H](CCc2ccc(C(F)(F)F)c(Cl)c2)NC(=O)CN(C)C(=O)[C@H](CC2CCCCC2)N(C)C(=O)[C@@H]2CCN2C(=O)[C@H](C)N(C)C1=O [Compound 2097] ([NMeL]I[NMeA][Aze][NMeCha][Sar][hPhe(3-Cl-4-CF3)][NMeD](Pyrrolidide)[Ac5c][NMeGly(cPent)][NMeD]-NMe2; lactam N-11) |

Same assay, conditions: AlphaScreen; biotin-tagged human Kras loaded with GDP, His-tagged human SOS1; read-out: KRAS G12D-SOS PPI IC50

| SMILES | IC50 |
| --- | --- |
| CC[C@H](C)[C@@H]1NC(=O)[C@H](C)N(C)C(=O)C[C@@H](C)NC(=O)[C@H](CC(C)C)N(C)C(=O)[C@H](Cc2ccccc2)N(C)C(=O)[C@H](CC(C)C)NC(=O)[C@H](CCc2ccc(C(F)(F)F)c(Cl)c2)NC(=O)CN(C)C(=O)[C@H](Cc2ccc(Cl)cc2)N(C)C(=O)CN(C)C(=O)CN(C)C1=O [Compound 2088] (cyclo(I[Sar][Sar][NMePhe(4-Cl)][Sar][hPhe(3-Cl-4-CF3)]L[NMeF][NMeL][d(β3hA)][NMeA])) | 30 nM |
| CC[C@H](C)[C@@H]1NC(=O)[C@H](C)N(C)C(=O)C[C@@H](C)N(C)C(=O)[C@H](CC(C)C)NC(=O)C(C)(C)N(C)C(=O)[C@H](CC(C)C)NC(=O)[C@H](CCc2ccc(C(F)(F)F)cc2)NC(=O)CN(C)C(=O)[C@H](Cc2ccc(Cl)cc2)N(C)C(=O)CN(C)C(=O)CN(C)C1=O [Compound 323] (cyclo(I[Sar][Sar][NMePhe(4-Cl)][Sar][hPhe(4-CF3)]L[NMeAib]L[NMedβ3hAla][NMeA])) | 140 nM |
| CC[C@H](C)[C@@H]1NC(=O)[C@H](CC(C)C)N(C)C(=O)C[C@@H](C(=O)N2CCCCC2)N(C)C(=O)[C@H](C(C)C)N(C)C(=O)C2(CCC2)NC(=O)[C@@H]2CCCN2C(=O)[C@H](CCc2ccc(C(F)(F)F)c(Cl)c2)NC(=O)CN(C)C(=O)[C@H](CC2CCCCC2)N(C)C(=O)[C@@H]2CCN2C(=O)[C@H](C)N(C)C1=O [Compound 1672] ([NMeL]I[NMeA][Aze][NMeCha][Sar][hPhe(3-Cl-4-CF3)]P[Ac4c][NMeV][NMeD]-Piperidide; lactam N-11) | 4.3 nM |
| CC[C@H](C)[C@@H]1NC(=O)[C@H](CC(C)C)N(C)C(=O)C[C@@H](C)N(C)C(=O)[C@H](C2CCCC2)N(C)C(=O)C2(CCC2)NC(=O)[C@@H]2CC(F)(F)CN2C(=O)[C@H](CCc2cc(F)c(C(F)(F)F)c(F)c2)NC(=O)CN(C)C(=O)[C@H](Cc2ccc(C(F)(F)F)cc2)N(CC)C(=O)[C@@H]2CCN2C(=O)[C@H](C)N(C)C1=O [Compound 1049] (cyclo([Ac4c][NMeGly(cPent)][NMedβ3hAla][NMeL]I[NMeA][Aze][NEtPhe(4-CF3)][Sar][hPhe(3,5-F2-4-CF3)][Pro(4,4-F2)])) | 3.7 nM |
| CCO[C@@H]1C[C@H]2C(=O)NC3(CCC3)C(=O)N(C)[C@@H](C3CCCCC3)C(=O)N(C)[C@H](C)CC(=O)N(C)[C@@H](CC(C)C)C(=O)N[C@@H]([C@@H](C)CC)C(=O)N(C)[C@@H](C)C(=O)N3CC[C@H]3C(=O)N(CC)[C@@H](Cc3ccc(C)cc3)C(=O)N(C)CC(=O)N[C@@H](CCc3cc(F)c(C(F)(F)F)c(F)c3)C(=O)N2C1 [Compound 724] (cyclo([Ac4c][NMeChg][NMedβ3hAla][NMeL]I[NMeA][Aze][NEtPhe(4-Me)][Sar][hPhe(3,5-F2-4-CF3)][Hyp](Et))) | 24 nM |
| CC[C@H](C)[C@@H]1NC(=O)[C@H](C(C)C)NC(=O)[C@@H]2CCCC[C@H]2NC(=O)[C@H](CC(C)C)N(C)C(=O)C2(CCCC2)NC(=O)[C@H](CC(C)C)N(C)C(=O)[C@H](CCc2ccc(C(F)(F)F)cc2)NC(=O)CN(C)C(=O)[C@H](Cc2ccc(Cl)cc2)N(C)C(=O)CN(C)C(=O)CN(C)C1=O [Compound 1126] (cyclo([Ac5c][NMeL][ACHC(1R,2R)]VI[Sar][Sar][NMePhe(4-Cl)][Sar][hPhe(4-CF3)][NMeL])) | 250 nM |
